Columns and labels:
[1] = target: T1, hNPFF2 (Homo sapiens, UniProt Q9Y5X5); assay: Receptor binding assay with [3H]-FFRFamide on CHO cell membranes expressing SF-hNPFFR2; conditions: [3H]-FFRF-NH2 radioligand, mean of at least two experiments; for Ki: read-out: Ki NPFF2
T1 construct: The cDNA encoding the full-length human NPFFR1 and human NPFFR2; expressed in transfected cells
From the text: (§1) The cDNA encoding the full-length human NPFFR1 and human NPFFR2 were subcloned into the pcDNA3 expression vector (Invitrogen, Cergy Pontoise, France) using standard molecular biology methods. A sequence encoding a signal sequence and a Flag epitope was fused to the 5' coding sequence of both hNPFFR1 and hNPFFR2 cDNA according to (Guan et al., 1992) resulting in a SF-hNPFFR1 and SF-hNPFFR2 constructs. These contructs were stably transfected into CHO cells.
(§2) Membranes from CHO cells stably expressing SF-hNPFFR1 or SF-hNPFFR2 were prepared as described (Becker et al., 1999). SF-hNPFFR1 or SF-hNPFFR2 membranes (10µg) were incubated for 30 min at 25 °C in a final volume of 0.5 ml containing 50 mM HEPES pH 7.4, 1 mM CaCl2, 1 mM MgCl2, 0.1% bovine serum albumin, 10 nM and 3 nM [^3H]-FFRFamide (CEA, Paris; specific activity, 13,6 Ci/mmol) for […], respectively and the ligands to be tested. Non-specific binding was determined in presence of 1 µM neuropeptide FF for SF-hNPFFR2 and 1 µM neuropeptide VF for SF -hNPFFR1. Typical total and nonspecific binding were 1200 and 200 dpm, respectively for SF-hNPFFR1 and SF-hNPFFR2. Incubation mixtures were rapidly filtered and washed with 50 mM HEPES pH 7.4, 1 mM CaCl2, 1 mM MgCl2, on 96 wells GF/B unifilter (Perkin Elmer). Unifilter plates where then dryied for 1hr at 65°C. Bound radioactivity was determined by scintillation counting with 30 µl of scintillation cocktail (O-scint, Perkin Elmer) per well on a Topcount scintillation apparatus (Perkin Elmer).

[2] = target: T2, hNPFF1 (Homo sapiens, UniProt Q9GZQ6); assay: Receptor binding assay with [3H]-FFRFamide on CHO cell membranes expressing SF-hNPFFR1; conditions: [3H]-FFRF-NH2 radioligand, mean of at least two experiments; for Ki: read-out: Ki NPFF1
T2 construct: The cDNA encoding the full-length human NPFFR1 and human NPFFR2; expressed in transfected cells
T2 sequence (Q9GZQ6 whole entry): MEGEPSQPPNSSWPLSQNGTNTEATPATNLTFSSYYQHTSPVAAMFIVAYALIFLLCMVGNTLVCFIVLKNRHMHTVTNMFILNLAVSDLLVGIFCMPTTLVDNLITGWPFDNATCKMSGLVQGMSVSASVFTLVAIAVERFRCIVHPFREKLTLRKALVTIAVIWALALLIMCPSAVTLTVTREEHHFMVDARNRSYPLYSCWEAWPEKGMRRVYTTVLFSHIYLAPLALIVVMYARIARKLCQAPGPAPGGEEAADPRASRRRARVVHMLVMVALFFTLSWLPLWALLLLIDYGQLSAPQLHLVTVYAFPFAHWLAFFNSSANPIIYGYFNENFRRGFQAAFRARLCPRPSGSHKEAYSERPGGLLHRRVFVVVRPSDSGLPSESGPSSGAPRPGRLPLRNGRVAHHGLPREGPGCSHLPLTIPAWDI
From the text: as §1, §2

T1 sequence (Q9Y5X5 whole entry): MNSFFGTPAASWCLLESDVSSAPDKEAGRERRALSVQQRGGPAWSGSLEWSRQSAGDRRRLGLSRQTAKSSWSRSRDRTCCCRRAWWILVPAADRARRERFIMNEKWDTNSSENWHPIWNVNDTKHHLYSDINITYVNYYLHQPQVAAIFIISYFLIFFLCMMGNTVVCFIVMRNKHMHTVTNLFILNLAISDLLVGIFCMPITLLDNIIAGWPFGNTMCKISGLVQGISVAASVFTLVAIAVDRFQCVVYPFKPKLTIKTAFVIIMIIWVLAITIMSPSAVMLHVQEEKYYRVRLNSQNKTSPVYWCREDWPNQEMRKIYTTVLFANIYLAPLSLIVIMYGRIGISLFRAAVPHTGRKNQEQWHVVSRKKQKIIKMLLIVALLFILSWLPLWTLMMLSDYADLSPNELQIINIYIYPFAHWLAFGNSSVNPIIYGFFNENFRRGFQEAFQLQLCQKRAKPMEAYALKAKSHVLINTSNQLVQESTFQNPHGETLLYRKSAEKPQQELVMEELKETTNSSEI

| SMILES | inhibition at 0.5 µM [1] | inhibition at 5 µM [1] | inhibition at 0.5 µM [2] | inhibition at 5 µM [2] | Ki [2] | Ki [1] |
| --- | --- | --- | --- | --- | --- | --- |
| O=C(N[C@H](CCCN1CCc2ccccc2C1)C(=O)NCCc1ccccc1)c1ccccc1-c1ccccc1 [Compound 25, (2R)-N-(2-phenylethyl)-2-[(2-phenylphenyl)formamido]-5-(1,2,3,4-tetrahydroisoquinolin-2-yl)pentanamide] | 0% | 16 ± 5% | 14 ± 1% | 51 ± 14% |  |  |
| O=C(N[C@H](CCCN1CCCCC1)C(=O)NCCc1ccccc1)c1ccccc1-c1ccccc1 [Compound 27, (2R)-N-(2-phenylethyl)-2-[(2-phenylphenyl)formamido]-5-(piperidin-1-yl)pentanamide] | 0% | 13 ± 8% |  |  | 0.179 ± 0.064 µM |  |
| O=C(N[C@@H](CCCN1CCCCC1)C(=O)NCCCc1ccccc1)c1ccccc1-c1ccccc1 [Compound 28, (2S)-2-[(2-phenylphenyl)formamido]-N-(3-phenylpropyl)-5-(piperidin-1-yl)pentanamide] | 0% | 17% | 16 ± 25% | 41 ± 2% |  |  |
| COc1ccc(-c2ccccc2C(=O)N[C@@H](CCCN2CCCCC2)C(=O)NCCCc2ccccc2)cc1 [Compound 29, (2S)-2-{[2-(4-methoxyphenyl)phenyl]formamido}-N-(3-phenylpropyl)-5-(piperidin-1-yl)pentanamide] | 0% | 23 ± 5% |  |  | 0.17 ± 0.07 µM |  |
| COc1ccc(-c2ccccc2C(=O)N[C@@H](CCCN2CCCCCC2)C(=O)NCCCc2ccccc2)cc1 [Compound 30, (2S)-5-(azepan-1-yl)-2-{[2-(4-methoxyphenyl)phenyl]formamido}-N-(3-phenylpropyl)pentanamide] |  |  |  |  | 0.064 ± 0.032 µM | 0.076 ± 0.018 µM |
| O=C(N[C@@H](CCCN1CCC(c2ccccc2)CC1)C(=O)NCCc1ccccc1)c1ccccc1-c1ccccc1 [Compound 31, (2S)-N-(2-phenylethyl)-2-[(2-phenylphenyl)formamido]-5-(4-phenylpiperidin-1-yl)pentanamide] | 0% | 45 ± 7% |  |  | 0.485 ± 0.035 µM |  |
| O=C(N[C@@H](CCCN1CCC(Cc2ccccc2)CC1)C(=O)NCCc1ccccc1)c1ccccc1-c1ccccc1 [Compound 32, (2S)-5-(4-benzylpiperidin-1-yl)-N-(2-phenylethyl)-2-[(2-phenylphenyl)formamido]pentanamide] |  |  |  |  | 0.4 µM | 0.034 µM |
| O=C(N[C@@H](CCCN1CCC(N2CCCCC2)CC1)C(=O)NCCc1ccccc1)c1ccccc1-c1ccccc1 [Compound 33, (2S)-N-(2-phenylethyl)-2-[(2-phenylphenyl)formamido]-5-[4-(piperidin-1-yl)piperidin-1-yl]pentanamide] | 13 ± 11% | 55 ± 15% |  |  | 0.071 ± 0.011 µM |  |
| CN1CCN(CCC[C@H](NC(=O)c2ccccc2-c2ccccc2)C(=O)NCCc2ccccc2)CC1 [Compound 34, (2S)-5-(4-methylpiperazin-1-yl)-N-(2-phenylethyl)-2-[(2-phenylphenyl)formamido]pentanamide] | 0% | 12 ± 5% |  |  | 0.232 ± 0.017 µM |  |
| CC(=O)N1CCN(CCC[C@H](NC(=O)c2ccccc2-c2ccccc2)C(=O)NCCc2ccccc2)CC1 [Compound 35, (2S)-5-(4-acetylpiperazin-1-yl)-N-(2-phenylethyl)-2-[(2-phenylphenyl)formamido]pentanamide] | 0% | 0% |  |  | 0.319 ± 0.013 µM |  |
| O=C(N[C@@H](CCCN1CCOCC1)C(=O)NCCc1ccccc1)c1ccccc1-c1ccccc1 [Compound 36, (2S)-5-(morpholin-4-yl)-N-(2-phenylethyl)-2-[(2-phenylphenyl)formamido]pentanamide] | 2% | 25 ± 2% | 10 ± 3% | 25 ± 10% |  |  |

— patent publication EP2669276A1 (Université de Strasbourg, priority 2012, dated 2013)
